One assay has as its target T1, human IR (hIR) (Homo sapiens, UniProt P06213).
T1 construct: containing amino acid residues 979-1382 of human IR; made in house; host or cells: Sf9 cells (baculovirus), same process as hIGF1R
In words: TR-FRET kinase assay of purified hIR. It is filed as biochemical. The note with it: activated hIR 0.5 nM, 10 μM ATP, values given as pIC50 category. For orientation: In TR-FRET formats the signal depends on donor and acceptor labels being close together.

In another assay the test system is NCI-H929. The experiment in a line: Inhibition of cell proliferation (CellTiter-Glo or InCell analyzer), NCI-H929. It is filed as cell-based. Particulars: Homo sapiens, 72 h / 3 days, values given as IC50 category. The method in brief:
In one
On the technique in general: ATP-based viability assays read luminescence as a measure of living cells.

We go through 24 compounds from patent US7981903B2, “2-[2-{phenylamino}-1H-pyrrolo[2,3-D]pyrimidin-4-yl)amino] benzamide derivatives as IGF-1R inhibitors for the treatment of cancer” (GlaxoSmithKline LLC, priority 2007, dated 2011).

By IC50 is commonly meant the concentration at which inhibition is half-maximal. Higher therefore signals weaker potency.

T1 sequence (P06213 979-1382): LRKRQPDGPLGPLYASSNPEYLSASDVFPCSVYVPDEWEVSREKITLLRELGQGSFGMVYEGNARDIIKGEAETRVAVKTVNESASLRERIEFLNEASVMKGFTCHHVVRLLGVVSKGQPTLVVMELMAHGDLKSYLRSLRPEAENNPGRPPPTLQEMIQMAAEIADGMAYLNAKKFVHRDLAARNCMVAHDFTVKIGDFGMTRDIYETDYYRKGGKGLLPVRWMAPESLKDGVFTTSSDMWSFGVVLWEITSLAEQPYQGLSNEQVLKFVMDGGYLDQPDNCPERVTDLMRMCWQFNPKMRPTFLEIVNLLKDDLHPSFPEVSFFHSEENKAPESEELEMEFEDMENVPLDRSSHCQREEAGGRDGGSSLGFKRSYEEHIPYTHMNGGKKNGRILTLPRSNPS

Regarding `CCC(C)N1CCc2cc(OC)c(Nc3nc(Nc4cccc(F)c4C(=O)NC)c4cc[nH]c4n3)cc2C1` (stereo not drawn) [Example 238, 2-fluoro-N-methyl-6-[(2-{[6-(methyloxy)-2-(1-methylpropyl)-1,2,3,4-tetrahydro-7-isoquinolinyl]amino}-1H-pyrrolo[2,3-d]pyrimidin-4-yl)amino]benzamide], the figures for the IC50 against human IR (hIR) and in the assay with NCI-H929 were 1.26 to 3.98 nM and 250 to 1000 nM, respectively.
For `CCCN(C)CC(=O)N1CCc2cc(OC)c(Nc3nc(Nc4cccc(F)c4C(N)=O)c4cc[nH]c4n3)cc21` [Example 168, 2-fluoro-6-[(2-{[5-(methyloxy)-1-(N-methyl-N-propylglycyl)-2,3-dihydro-1H-indol-6-yl]amino}-1H-pyrrolo[2,3-d]pyrimidin-4-yl)amino]benzamide], the IC50 is 0.251 to 1 nM against human IR (hIR) and under 250 nM with NCI-H929.
On to `COc1cc2c(cc1Nc1nc(Nc3ccc(F)c(F)c3C(=O)NC(C)C)c3cc[nH]c3n1)N(C(=O)CN(C)C)CC2` [Example 161, 6-[(2-{[1-(N,N-dimethylglycyl)-5-(methyloxy)-2,3-dihydro-1H-indol-6-yl]amino}-1H-pyrrolo[2,3-d]pyrimidin-4-yl)amino]-2,3-difluoro-N-(1-methylethyl)benzamide], for which the IC50 on human IR (hIR) is 5.01 to 158 nM; in the assay with NCI-H929 it was 250 to 1000 nM.
In the case of `CNC(=O)c1c(F)cccc1Nc1nc(Nc2cc3c(cc2OC)CCN3C(=O)CN(C)C)nc2[nH]cc(C)c12` [Example 258, 2-[(2-{[1-(N,N-dimethylglycyl)-5-(methyloxy)-2,3-dihydro-1H-indol-6-yl]amino}-5-methyl-1H-pyrrolo[2,3-d]pyrimidin-4-yl)amino]-6-fluoro-N-methylbenzamide], the IC50 on human IR (hIR) is 0.251 to 1 nM; in the assay on NCI-H929 it was 250 to 1000 nM.
On the same counts, the results for `COc1cc2c(cc1Nc1nc(Nc3cc(Cl)cc(F)c3C(N)=O)c3cc[nH]c3n1)N(C(=O)CN1CCCC1)CC2` [Example 175, 4-chloro-2-fluoro-6-[(2-{[5-(methyloxy)-1-(1-pyrrolidinylacetyl)-2,3-dihydro-1H-indol-6-yl]amino}-1H-pyrrolo[2,3-d]pyrimidin-4-yl)amino]benzamide] are 0.251 to 1 nM and under 250 nM.
Turning to `COc1cc2c(cc1Nc1nc(Nc3cccc(F)c3C(N)=O)c3cc[nH]c3n1)CN(C(=O)CCN(C)C)CC2` [Example 230, 2-[(2-{[2-(N,N-dimethyl-β-alanyl)-6-(methyloxy)-1,2,3,4-tetrahydro-7-isoquinolinyl]amino}-1H-pyrrolo[2,3-d]pyrimidin-4-yl)amino]-6-fluorobenzamide], the results for the IC50 against human IR (hIR) and in the assay on NCI-H929 were 5.01 to 158 nM and 250 to 1000 nM, respectively.
For `COc1cc(N2CCCN(C(C)C)CC2)ccc1Nc1nc(Nc2cccc(F)c2C(N)=O)c2cc[nH]c2n1` [Example 208, 2-fluoro-6-[(2-{[4-[4-(1-methylethyl)hexahydro-1H-1,4-diazepin-1-yl]-2-(methyloxy)phenyl]amino}-1H-pyrrolo[2,3-d]pyrimidin-4-yl)amino]benzamide], the IC50 was 5.01 to 158 nM at human IR (hIR) and under 250 nM with NCI-H929.
The matching figures for `COc1cc2c(cc1Nc1nc(Nc3cc(F)cc(F)c3C(N)=O)c3cc[nH]c3n1)N(C(=O)CN(C)C)CC2` [Example 189, 2-[(2-{[1-(N,N-dimethylglycyl)-5-(methyloxy)-2,3-dihydro-1H-indol-6-yl]amino}-1H-pyrrolo[2,3-d]pyrimidin-4-yl)amino]-4,6-difluorobenzamide]: 0.251 to 1 nM and under 250 nM.
On the same counts, the results for `CNC(=O)c1c(F)cc(F)cc1Nc1nc(Nc2cc3c(cc2OC)CCCN3C(=O)CN2CCCC2)nc2[nH]ccc12` [Example 221, 2,4-difluoro-N-methyl-6-[(2-{[6-(methyloxy)-1-(1-pyrrolidinylacetyl)-1,2,3,4-tetrahydro-7-quinolinyl]amino}-1H-pyrrolo[2,3-d]pyrimidin-4-yl)amino]benzamide] are 0.251 to 1 nM and under 250 nM.
`CNC(=O)c1c(F)cc(F)cc1Nc1nc(Nc2cc3c(cc2OC)CCCN3C(=O)CN(C)C)nc2[nH]ccc12` [Example 179, 2-[(2-{[1-(N,N-dimethylglycyl)-6-(methyloxy)-1,2,3,4-tetrahydro-7-quinolinyl]amino}-1H-pyrrolo[2,3-d]pyrimidin-4-yl)amino]-4,6-difluoro-N-methylbenzamide]: the IC50 at human IR (hIR) was 0.251 to 1 nM; in the assay on NCI-H929, under 250 nM.
With `COc1cc2c(cc1Nc1nc(Nc3cccc(F)c3C(N)=O)c3cc[nH]c3n1)NCC2` [Example 140, 2-fluoro-6-[(2-{[5-(methyloxy)-2,3-dihydro-1H-indol-6-yl]amino}-1H-pyrrolo[2,3-d]pyrimidin-4-yl)amino]benzamide], the IC50 on human IR (hIR) was 5.01 to 158 nM; in the assay with NCI-H929 it was over 1000 nM.
The matching figures for `CNC(=O)c1c(F)cccc1Nc1nc(Nc2cc3c(cc2OC)CCN3C(=O)COC)nc2[nH]ccc12` [Example 150, 2-fluoro-N-methyl-6-{[2-({5-(methyloxy)-1-[(methyloxy)acetyl]-2,3-dihydro-1H-indol-6-yl}amino)-1H-pyrrolo[2,3-d]pyrimidin-4-yl]amino}benzamide]: 5.01 to 158 nM and 250 to 1000 nM.
Turning to `COc1cc2c(cc1Nc1nc(Nc3cccc(F)c3C(N)=O)c3cc[nH]c3n1)N(C(=O)N(C)C)CC2` [Example 146, 6-[(4-{[2-(aminocarbonyl)-3-fluorophenyl]amino}-1H-pyrrolo[2,3-d]pyrimidin-2-yl)amino]-N,N-dimethyl-5-(methyloxy)-2,3-dihydro-1H-indole-1-carboxamide], the IC50 against human IR (hIR) was 5.01 to 158 nM; in the assay with NCI-H929 it was 250 to 1000 nM.
In the case of `COc1cc2c(cc1Nc1nc(Nc3cccc(F)c3C(N)=O)c3cc[nH]c3n1)N(C(=O)CN(C)C)CCC2` [Example 210, 2-[(2-{[1-(N,N-dimethylglycyl)-6-(methyloxy)-1,2,3,4-tetrahydro-7-quinolinyl]amino}-1H-pyrrolo[2,3-d]pyrimidin-4-yl)amino]-6-fluorobenzamide], the IC50 against human IR (hIR) was 0.251 to 1 nM; in the assay with NCI-H929, under 250 nM.
Consider `CNC(=O)c1c(F)cccc1Nc1nc(Nc2cc3c(cc2OC)CCN3C(C)=O)nc2[nH]ccc12` [Example 135, 2-[(2-{[1-acetyl-5-(methyloxy)-2,3-dihydro-1H-indol-6-yl]amino}-1H-pyrrolo[2,3-d]pyrimidin-4-yl)amino]-6-fluoro-N-methylbenzamide], for which the IC50 was 5.01 to 158 nM against human IR (hIR) and 250 to 1000 nM with NCI-H929.
With `COc1cc2c(cc1Nc1nc(Nc3cc(F)cc(F)c3C(N)=O)c3cc[nH]c3n1)N(C(=O)CN1CCCC1)CCC2` [Example 219, 2,4-difluoro-6-[(2-{[6-(methyloxy)-1-(1-pyrrolidinylacetyl)-1,2,3,4-tetrahydro-7-quinolinyl]amino}-1H-pyrrolo[2,3-d]pyrimidin-4-yl)amino]benzamide], the figures for the IC50 at human IR (hIR) and in the assay on NCI-H929 were 0.251 to 1 nM and under 250 nM, respectively.
On to `CCNC(=O)c1c(F)cc(F)cc1Nc1nc(Nc2cc3c(cc2OC)CCN3C(=O)CN(C)C)nc2[nH]ccc12` [Example 151, 2-[(2-{[1-(N,N-dimethylglycyl)-5-(methyloxy)-2,3-dihydro-1H-indol-6-yl]amino}-1H-pyrrolo[2,3-d]pyrimidin-4-yl)amino]-N-ethyl-4,6-difluorobenzamide], for which the IC50 against human IR (hIR) was 0.251 to 1 nM; in the assay with NCI-H929, 250 to 1000 nM.
On the same counts, the results for `COc1cc2c(cc1Nc1nc(Nc3cccc(F)c3C(N)=O)c3cc[nH]c3n1)CN(C(=O)CCN1CCOCC1)CC2` [Example 231, 2-fluoro-6-{[2-({6-(methyloxy)-2-[3-(4-morpholinyl)propanoyl]-1,2,3,4-tetrahydro-7-isoquinolinyl}amino)-1H-pyrrolo[2,3-d]pyrimidin-4-yl]amino}benzamide] are 5.01 to 158 nM and 250 to 1000 nM.
For the compound `COc1cc2c(cc1Nc1nc(Nc3cccc(F)c3C(N)=O)c3cc[nH]c3n1)N(C(=O)CCN1CCN(C(C)C)CC1)CC2` [Example 188, 2-fluoro-6-[(2-{[1-{3-[4-(1-methylethyl)-1-piperazinyl]propanoyl}-5-(methyloxy)-2,3-dihydro-1H-indol-6-yl]amino}-1H-pyrrolo[2,3-d]pyrimidin-4-yl)amino]benzamide], the IC50 on human IR (hIR) was 5.01 to 158 nM; in the assay on NCI-H929, 250 to 1000 nM.
Take `COc1cc(OCCCN2CCN(C)CC2)ccc1Nc1nc(Nc2cccc(F)c2C(N)=O)c2cc[nH]c2n1` [Example 205, 2-fluoro-6-({2-[(2-(methyloxy)-4-{[3-(4-methyl-1-piperazinyl)propyl]oxy}phenyl)amino]-1H-pyrrolo[2,3-d]pyrimidin-4-yl}amino)benzamide]: the IC50 against human IR (hIR) was 1.26 to 3.98 nM; in the assay on NCI-H929 it was under 250 nM.
In the case of `COc1cc(N2CCN(C(C)C)CC2)ccc1Nc1nc(Nc2cc(F)cc(F)c2C(N)=O)c2cc[nH]c2n1` [Example 89, 2,4-difluoro-6-[(2-{[4-[4-(1-methylethyl)-1-piperazinyl]-2-(methyloxy)phenyl]amino}-1H-pyrrolo[2,3-d]pyrimidin-4-yl)amino]benzamide], the figures for the IC50 against human IR (hIR) and in the assay with NCI-H929 were 0.251 to 1 nM and under 250 nM, respectively.
Regarding `CCN(CC)CC(=O)N1CCc2cc(OC)c(Nc3nc(Nc4cccc(F)c4C(=O)NC)c4cc[nH]c4n3)cc21` [Example 137, 2-[(2-{[1-(N,N-diethylglycyl)-5-(methyloxy)-2,3-dihydro-1H-indol-6-yl]amino}-1H-pyrrolo[2,3-d]pyrimidin-4-yl)amino]-6-fluoro-N-methylbenzamide], the IC50 against human IR (hIR) was 5.01 to 158 nM; with NCI-H929 it was under 250 nM.
In the case of `CCCN1CCC(N2CCc3cc(OC)c(Nc4nc(Nc5cccc(F)c5C(N)=O)c5cc[nH]c5n4)cc3C2)CC1` [Example 122, 2-fluoro-6-[(2-{[6-(methyloxy)-2-(1-propyl-4-piperidinyl)-1,2,3,4-tetrahydro-7-isoquinolinyl]amino}-1H-pyrrolo[2,3-d]pyrimidin-4-yl)amino]benzamide], the IC50 was 1.26 to 3.98 nM against human IR (hIR) and under 250 nM in the assay with NCI-H929.
`COc1cc(N2CCN(C(C)C)CC2)c(C)cc1Nc1nc(Nc2cc(F)cc(F)c2C(N)=O)c2cc[nH]c2n1` [Example 91, 2,4-difluoro-6-[(2-{[5-methyl-4-[4-(1-methylethyl)-1-piperazinyl]-2-(methyloxy)phenyl]amino}-1H-pyrrolo[2,3-d]pyrimidin-4-yl)amino]benzamide]: the IC50 against human IR (hIR) is 1.26 to 3.98 nM; with NCI-H929, under 250 nM.
